# Measured values taken from the supplement of paper PMC10307832.
# Legend:
# Test in all cases: relative viability (nuclei count vs DMSO), 5 days (fraction); higher = more cells survive
# COR-L23 = test system: COR-L23
# Outline: (§1)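 Lung cancer cell lines in 1536-well plates got either a single drug or a fixed anchor-drug dose together with five library-drug doses (not always all listed) in √10 steps, by pin tool, on the day after seeding. Nuclei were counted after 5 days, and relative viability is the treated-to-vehicle ratio of nuclei counts. Values are medians of duplicate plates.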
# NCI-H2405 = test system: NCI-H2405
# Outline: as §1
# NCI-H1793 = test system: NCI-H1793
# Outline: as §1
# NCI-H1650 = test system: NCI-H1650
# Outline: as §1
# NCI-H1993 = test system: NCI-H1993
# Outline: as §1
# ABC-1 = test system: ABC-1
# Outline: as §1
# HARA = test system: HARA
# Outline: as §1
# LK-2 = test system: LK-2
# Outline: as §1
# HCC-366 = test system: HCC-366
# Outline: as §1
# NCI-H2228 = test system: NCI-H2228
# Outline: as §1
# NCI-H1944 = test system: NCI-H1944
# Outline: as §1
# NCI-H838 = test system: NCI-H838
# Outline: as §1
# HCC-15 = test system: HCC-15
# Outline: as §1
# NCI-H2009 = test system: NCI-H2009
# Outline: as §1
# NCI-H23 = test system: NCI-H23
# Outline: as §1
# NCI-H1734 = test system: NCI-H1734
# Outline: as §1
# EMC-BAC-2 = test system: EMC-BAC-2
# Outline: as §1
# A-427 = test system: A-427
# Outline: as §1
# ChaGo-K-1 = test system: ChaGo-K-1
# Outline: as §1
# NCI-H2023 = test system: NCI-H2023
# Outline: as §1
# UMC-11 = test system: UMC-11
# Outline: as §1
# LC-2-ad = test system: LC-2-ad
# Outline: as §1
# SK-LU-1 = test system: SK-LU-1
# Outline: as §1
# HCC-78 = test system: HCC-78
# Outline: as §1
smiles,measurement,setting,value
COc1cc(N2CCC(C(N)=O)CC2)ccc1Nc1nc(N)c(Cl)c(Nc2ccccc2S(=O)(=O)C(C)C)n1 [HG-5-88-01] + COc1cccc2cc(-c3nc([C@H]4CC[C@H](C(=O)O)CC4)n4ncnc(N)c34)[nH]c12 [OSI-027] (partner 0.5 µM),relative viability,COR-L23; first compound 0.04 µM,0.772
same,relative viability,COR-L23; first compound 0.1265 µM,0.79
same,relative viability,COR-L23; first compound 0.4 µM,0.646
same,relative viability,COR-L23; first compound 1.265 µM,0.55
same,relative viability,COR-L23; first compound 4 µM,0.505
same,relative viability,NCI-H2405; first compound 0.04 µM,0.579
same,relative viability,NCI-H2405; first compound 0.1265 µM,0.559
same,relative viability,NCI-H2405; first compound 0.4 µM,0.539
same,relative viability,NCI-H2405; first compound 1.265 µM,0.343
same,relative viability,NCI-H2405; first compound 4 µM,0.382
same,relative viability,NCI-H1793; first compound 0.1265 µM,0.269
same,relative viability,NCI-H1793; first compound 0.4 µM,0.236
same,relative viability,NCI-H1793; first compound 4 µM,0.177
same,relative viability,NCI-H1650; first compound 0.04 µM,0.603
same,relative viability,NCI-H1650; first compound 0.1265 µM,0.657
same,relative viability,NCI-H1650; first compound 0.4 µM,0.399
same,relative viability,NCI-H1650; first compound 1.265 µM,0.32
same,relative viability,NCI-H1650; first compound 4 µM,0.265
same,relative viability,NCI-H1993; first compound 0.04 µM,0.536
same,relative viability,NCI-H1993; first compound 0.1265 µM,0.504
same,relative viability,NCI-H1993; first compound 0.4 µM,0.52
same,relative viability,NCI-H1993; first compound 1.265 µM,0.532
same,relative viability,NCI-H1993; first compound 4 µM,0.536
same,relative viability,ABC-1; first compound 0.04 µM,0.468
same,relative viability,ABC-1; first compound 0.1265 µM,0.428
same,relative viability,ABC-1; first compound 0.4 µM,0.399
same,relative viability,ABC-1; first compound 1.265 µM,0.348
same,relative viability,ABC-1; first compound 4 µM,0.293
same,relative viability,HARA; first compound 0.04 µM,0.378
same,relative viability,HARA; first compound 0.1265 µM,0.578
same,relative viability,HARA; first compound 0.4 µM,0.437
same,relative viability,HARA; first compound 1.265 µM,0.121
same,relative viability,HARA; first compound 4 µM,0.144
same,relative viability,LK-2; first compound 0.04 µM,0.173
same,relative viability,LK-2; first compound 0.1265 µM,0.189
same,relative viability,LK-2; first compound 0.4 µM,0.15
same,relative viability,LK-2; first compound 1.265 µM,0.173
same,relative viability,LK-2; first compound 4 µM,0.175
same,relative viability,HCC-366; first compound 0.04 µM,1.02
same,relative viability,HCC-366; first compound 0.1265 µM,0.941
same,relative viability,HCC-366; first compound 0.4 µM,1.02
same,relative viability,HCC-366; first compound 1.265 µM,0.577
same,relative viability,HCC-366; first compound 4 µM,0.6
same,relative viability,NCI-H2228; first compound 0.04 µM,0.241
same,relative viability,NCI-H2228; first compound 0.1265 µM,0.148
same,relative viability,NCI-H2228; first compound 0.4 µM,0.181
same,relative viability,NCI-H2228; first compound 1.265 µM,0.169
same,relative viability,NCI-H2228; first compound 4 µM,0.172
same,relative viability,NCI-H1944; first compound 0.04 µM,0.386
same,relative viability,NCI-H1944; first compound 0.1265 µM,0.391
same,relative viability,NCI-H1944; first compound 0.4 µM,0.422
same,relative viability,NCI-H1944; first compound 1.265 µM,0.297
same,relative viability,NCI-H1944; first compound 4 µM,0.251
same,relative viability,NCI-H838; first compound 0.04 µM,0.359
same,relative viability,NCI-H838; first compound 0.1265 µM,0.333
same,relative viability,NCI-H838; first compound 0.4 µM,0.238
same,relative viability,NCI-H838; first compound 1.265 µM,0.247
same,relative viability,NCI-H838; first compound 4 µM,0.173
same,relative viability,HCC-15; first compound 0.04 µM,0.683
same,relative viability,HCC-15; first compound 0.1265 µM,0.8
same,relative viability,HCC-15; first compound 0.4 µM,0.539
same,relative viability,HCC-15; first compound 1.265 µM,0.547
same,relative viability,HCC-15; first compound 4 µM,0.326
same,relative viability,NCI-H2009; first compound 0.04 µM,0.565
same,relative viability,NCI-H2009; first compound 0.1265 µM,0.585
same,relative viability,NCI-H2009; first compound 0.4 µM,0.423
same,relative viability,NCI-H2009; first compound 1.265 µM,0.444
same,relative viability,NCI-H2009; first compound 4 µM,0.353
same,relative viability,NCI-H23; first compound 0.04 µM,0.511
same,relative viability,NCI-H23; first compound 0.1265 µM,0.605
same,relative viability,NCI-H23; first compound 0.4 µM,0.615
same,relative viability,NCI-H23; first compound 1.265 µM,0.311
same,relative viability,NCI-H23; first compound 4 µM,0.238
same,relative viability,NCI-H1734; first compound 0.04 µM,0.59
same,relative viability,NCI-H1734; first compound 0.1265 µM,0.615
same,relative viability,NCI-H1734; first compound 0.4 µM,0.394
same,relative viability,NCI-H1734; first compound 1.265 µM,0.399
same,relative viability,NCI-H1734; first compound 4 µM,0.386
same,relative viability,EMC-BAC-2; first compound 0.04 µM,0.361
same,relative viability,EMC-BAC-2; first compound 0.1265 µM,0.371
same,relative viability,EMC-BAC-2; first compound 0.4 µM,0.326
same,relative viability,EMC-BAC-2; first compound 1.265 µM,0.307
same,relative viability,EMC-BAC-2; first compound 4 µM,0.251
same,relative viability,A-427; first compound 0.04 µM,0.441
same,relative viability,A-427; first compound 0.1265 µM,0.533
same,relative viability,A-427; first compound 0.4 µM,0.524
same,relative viability,A-427; first compound 1.265 µM,0.416
same,relative viability,A-427; first compound 4 µM,0.283
same,relative viability,ChaGo-K-1; first compound 0.04 µM,0.627
same,relative viability,ChaGo-K-1; first compound 0.1265 µM,0.649
same,relative viability,ChaGo-K-1; first compound 0.4 µM,0.645
same,relative viability,ChaGo-K-1; first compound 1.265 µM,0.605
same,relative viability,ChaGo-K-1; first compound 4 µM,0.47
same,relative viability,NCI-H2023; first compound 0.04 µM,0.433
same,relative viability,NCI-H2023; first compound 0.1265 µM,0.407
same,relative viability,NCI-H2023; first compound 0.4 µM,0.205
same,relative viability,NCI-H2023; first compound 1.265 µM,0.109
same,relative viability,NCI-H2023; first compound 4 µM,0.127
same,relative viability,UMC-11; first compound 0.04 µM,0.347
same,relative viability,UMC-11; first compound 0.1265 µM,0.521
same,relative viability,UMC-11; first compound 1.265 µM,0.464
same,relative viability,UMC-11; first compound 4 µM,0.334
same,relative viability,LC-2-ad; first compound 0.04 µM,0.819
same,relative viability,LC-2-ad; first compound 0.1265 µM,0.944
same,relative viability,LC-2-ad; first compound 0.4 µM,0.826
same,relative viability,LC-2-ad; first compound 1.265 µM,0.558
same,relative viability,LC-2-ad; first compound 4 µM,0.416
same,relative viability,SK-LU-1; first compound 0.04 µM,0.292
same,relative viability,SK-LU-1; first compound 0.1265 µM,0.34
same,relative viability,SK-LU-1; first compound 0.4 µM,0.278
same,relative viability,SK-LU-1; first compound 1.265 µM,0.235
same,relative viability,SK-LU-1; first compound 4 µM,0.174
same,relative viability,HCC-78; first compound 0.04 µM,0.359
same,relative viability,HCC-78; first compound 0.1265 µM,0.293
same,relative viability,HCC-78; first compound 0.4 µM,0.349
same,relative viability,HCC-78; first compound 1.265 µM,0.27
same,relative viability,HCC-78; first compound 4 µM,0.301
